According to patent publication US20260374739A1, “SMALL MOLECULAR WEIGHT CHEMICAL COMPOUND TO ANTAGONIZE EPH-EPHRIN TETRAMERIZATION AND INHIBIT BIDIRECTIONAL SIGNALING” (THE BOARD OF REGENTS OF THE UNIVERSITY OF TEXAS SYSTEM, priority 2022, published 2026):

What was measured:
EphrinB1-EphB1 = target: T1, EphrinB1-EphB1 (Homo sapiens, UniProt P54762); test: Octet, immobilized human EphrinB1 binding to human EphB1
T1 sequence (P54762 18-540 limits assumed): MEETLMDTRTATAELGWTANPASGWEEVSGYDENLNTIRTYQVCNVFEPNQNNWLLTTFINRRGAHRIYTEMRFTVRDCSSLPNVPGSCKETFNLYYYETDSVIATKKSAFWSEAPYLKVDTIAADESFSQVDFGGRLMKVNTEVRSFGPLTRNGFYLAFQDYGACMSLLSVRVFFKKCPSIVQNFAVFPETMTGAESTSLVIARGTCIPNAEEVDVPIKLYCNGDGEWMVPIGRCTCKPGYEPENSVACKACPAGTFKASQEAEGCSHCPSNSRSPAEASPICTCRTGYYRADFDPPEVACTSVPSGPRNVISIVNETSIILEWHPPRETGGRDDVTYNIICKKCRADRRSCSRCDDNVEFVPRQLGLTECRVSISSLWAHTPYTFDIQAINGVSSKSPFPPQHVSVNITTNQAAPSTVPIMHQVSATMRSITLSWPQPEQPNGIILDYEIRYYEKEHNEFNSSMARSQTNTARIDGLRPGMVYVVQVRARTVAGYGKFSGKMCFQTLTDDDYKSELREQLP
Procedure: (§1) Studies were conducted to confirm that A20 chemicals can effectively target the human Eph/Ephrin proteins. Octet system was used to first characterize the biophysical interactions of the human B class Eph and Ephrin proteins, and then was tested to assess how A20 may disrupt the interactions. Since the human and rodent proteins are highly conserved, and essentially identical, with EphB2 sharing 99.5% identity between human and mouse, with only 5 of ~1,000 amino acids different, any species-specific differences were not anticipated. Therefore, commercially available human EphrinB1-Fc (EB1), EphrinB2-Fc (EB2), and EphrinB3-Fc (EB3) ectodomain proteins were sparsely immobilized onto biosensors and then exposed to 50 nM of soluble human EphB1-His, EphB2-His, and EphB4-His ectodomains for 800 sec association and 1,000 sec dissociation steps with a total of nine different interactions analyzed. In the absence of A20 chemical, the immobilized human EphrinB proteins bound to their appropriate human EphB target proteins; with EphrinB1 only bound EphB1 and EphB2, EphrinB2 bound all three EphB1, EphB2, and EphB4, and EphrinB3 only bound EphB1 and EphB2 (FIG. 19A-19B).
Addition of compound also altered dissociation kinetics. […] This is referred to as the “unsurmountable” component of the Eph-Ephrin interaction (FIG. 21C). Additionally, AUC data was graphed for these runs (FIG. 21D). […] For EB2-EphB4, the dimer:tetramer ratio was 83:8 in the presence of A20 and was not much different from the no compound control run because it is already a strong dimer-driven interaction. […] A similar though more muted effect of A20 on tetramer accumulation was also observed for the other interactions of immobilized human EphrinB binding to soluble human EphB1 and EphB2 ectodomains (FIG. 22). The inhibitory effect of A20 is strongest on the EB2-EphB2 interaction with absolute IC50 reaching 1 μM, followed by the EB2-EphB1 interaction with absolute IC50-10 μM. […]

EphrinB3-EphB1 = EphrinB3-EphB1 (Homo sapiens, UniProt P54762); test: Octet, immobilized human EphrinB3 binding to human EphB1
Procedure: as §1
Addition of compound also altered dissociation kinetics. […] This is referred to as the “unsurmountable” component of the Eph-Ephrin interaction (FIG. 21C). Additionally, AUC data was graphed for these runs (FIG. 21D). […]

EphB2-His-Fc = test: single-protein counter ELISA; conditions: 5 μM
Procedure: The 32 hits were then subjected to ELISA in which EphB1-Fc was first immobilized in 96 well Protein A plates, then soluble EB2-His was added with hit compound in triplicate, again at 5 μM. After 2 hr at RT to allow EB2-His binding to EphB1-Fc, wells were washed, incubated with nickel-activated horseradish peroxidase (HisProbe-HRP) to detect bound EB2-His protein, washed, and then incubated with ELISA Pico Chemiluminescent Substrate (both from Thermo-Fisher) before being read in a luminometer. A single-protein counter ELISA using the dual-tagged EphB2-His-Fc ectodomain protein was also run. […] For simplicity, we call this compound A20.

[1] = oral bioavailability, IV 3 mg/kg vs PO 30 mg/kg; assay type: in vivo, mouse; conditions: PBS
Procedure: A20.2×HCl compound was provided to the UT Southwestern PK Core facility and tested for bioavailability after a single dose when either injected intravenous (IV) at 3 mg/kg or provided by oral gavage (PO) at 30 mg/kg using PBS as vehicle. The data on oral gavage is quite impressive and indicates significant levels of A20 persist, especially in the liver, after a single dose.
To examine the drug-like nature of the disclosed compounds, tests for solubility was conducted.

[2] = read-out: concentration producing maximum inhibition

SMILES	reduction of tetramer formation (EphrinB1-EphB1; EB1-EphB1, A20) [%]	antagonism of EphrinB1/EphrinB3 binding (EphrinB1-EphB1; EphB1/EphB2 with EB1 and EB3, species not given)	IC (maximum) (EphrinB1-EphB1; [2]) [µM]	reduction of tetramer formation (EphrinB3-EphB1; EB3-EphB1, A20) [%]	IC (maximum) (EphrinB3-EphB1; [2]) [µM]	counter ELISA signal (EphB2-His-Fc)	oral bioavailability [1]
Oc1c(Br)cc(CN2CCOCC2)c2cccnc12 [Compound 5, 7-bromo-5-(morpholinomethyl)quinolin-8-ol]	15	can also antagonize EphB1/EphB2 proteins from binding to EphrinB1 (EB1) and EphrinB3 (EB3) proteins	1	40	10	had no effect on signal in the single-protein ELISA	–
Oc1c(Br)cc(CN2CCOCC2)c2cccnc12 [Compound 6, 4-((7-bromo-8-hydroxyquinolin-1-ium-5-yl)methyl)morpholin-4-ium chloride]	–	–	–	–	–	–	orally bioavailable
